# Key:
# HSV-1 [1] = assay: plaque formation test (antiviral activity, CPE as index) on Vero cells; format: cell-based, herpes simplex virus type 1 (strain 7401 H); conditions: Human alphaherpesvirus 1, Vero, 50% plaque formation inhibition concentration; HSV-1 on Vero cells; three experiments; read-out: EC50 (µg/mℓ) (average ± standard deviation)
# Source text: (§1) In order to examine antiviral activity, herpes simplex virus type 1 (strain 7401 H) (referred sometimes to as "HSV-1" hereinafter), TK deficiency herpes simplex virus type 1 (strain B 2006) (referred sometimes to as "TK^-" hereinafter), phosphono acetic acid (referred to as "PAA" hereinafter) resistant herpes simplex virus type 1 (PAA resistant strain derived from 7401 H) (referred sometimes to as "AP^r1" hereinafter) and herpes simplex virus type 2 (strain Ito 1262) (referred sometimes to as "HSV-2" hereinafter) were used as viruses. […]
# (§2) That is, the above-described virus solution was diluted to a concentration of 100 plaques/0.2 mℓ, the thus diluted virus solution (0.2 mℓ) was inoculated into Vero cells which have been cultured into monolayer in a plastic dish of 60 mm in diameter, and the mixture was incubated at 37°C for 1 hour to effect adsorption of viruses to the Vero cells. After the adsorption, 2% fetal bovine serum-added MEM medium (5 mℓ) containing each drug solution to be measured having varied drug concentration and 0.8% methyl cellulose was overlaid on the just described virus-adsorbed monolayer Vero cells which were subsequently cultured at 37°C for 2 to 5 days to effect plaque formation. […] The number of plaques was counted under a stereoscopic microscope. […]
# AP^r1 [2] = assay: as above; format: cell-based; conditions: Human alphaherpesvirus 1, Vero, read-out: EC50 (µg/mℓ) (average ± standard deviation), 50% plaque formation inhibition concentration, three experiments
# Source text: as §1, §2
# HSV-1 [3] = assay: skin infection of BALB/c mice with HSV-1, scoring of affected parts and survival; format: in vivo
# Source text: In order to illustratively confirm the effect of 3-oxo-olean-18-en-28-oic acid (moronic acid) to inhibit growth of viruses after viral infection, skin cell tissues of BALB/c mice were infected with the strain HSV-1 and then the parts affected thereafter were observed and scored. The scores were made based on the average time (days ± standard deviation) until the affected parts reached score 2 (local efflorescence, bulla, erosion) or score 6 (slight shingles) and based on the survival days.
# [4] = toxicity test in non-infected mice; format: in vivo
# Protocol: Next, in order to examine toxicity of moronic acid, a toxicity test was carried out by administering control (water only) or 1 mg, 5 mg or 10 mg per kg mouse body weight of 3-oxo-olean-18-en-28-oic acid (moronic acid) to mice which have not been infected with viruses. Mice having a weight of 18 to 21 g/animal just before the commencement of the test were used in five animals per group. None of the mice died before completion of the test. 3-Oxo-olean-18-en-28-oic acid (moronic acid) was orally administered every day and three times a day.
# AP^r1 [5] = assay: viral DNA synthesis, slot-blot hybridization with radiation-labeled probe in Vero cells; format: cell-based; conditions: 0, 5, 10 or 20 µg/mℓ, even at 20 µg/mℓ, Fig. 2
# Protocol: Finally, in order to examine effects of moronic acid on the viral synthesis ability, the amount of virus particles in cultured cells was measured by the slot-blot hybridization described in J. Traditional Med., 12, 187 - 194 (1995). Using a radiation-labeled probe, viral DNA synthesis ability of herpesvirus strains HSV-1 and AP^r1 was measured just after adsorption of the viruses to animal cells (Vero cells) or when concentration of 3-oxo-olean-18-en-28-oic acid (moronic acid) was changed (0, 5, 10 or 20 µg/mℓ), with the results shown as a chart in Fig. 2 (photograph).
# In Fig. 2, rough amounts of each herpesvirus are shown by the strength of black parts. For the sake of comparison, DNA copy number of a virus TK^- is shown on the right-side column as a reference strength.
# [6] = Exp. 3, 1 mg/kg oral three times a day
# [7] = Exp. 3, 10 mg/kg oral three times a day
# [8] = Exp.1, 1 mg/kg oral three times a day
# [9] = Exp.2, 0.2 mg/kg oral three times a day
# [10] = Exp.2, 1 mg/kg oral three times a day
# [11] = Exp.2, 5 mg/kg oral three times a day
# [12] = Exp. 1, 1 mg/kg orally every day, three times a day, non-infected mice, five per group
smiles,measurement,setting,value
"CC1(C)C=C2[C@H]3CC[C@@H]4[C@@]5(C)CCC(=O)C(C)(C)[C@@H]5CC[C@@]4(C)[C@]3(C)CC[C@@]2(C(=O)O)CC1 [Moronic acid, 3-oxo-olean-18-en-28-oic acid]",EC50,HSV-1 [1],3.9 ± 1.1 µg/mL
same,EC50,AP^r1 [2],1.6 ± 0.4 µg/mL
same,"Average time (days ± standard deviation) Score-2 (local efflorescence, bulla, erosion)",HSV-1 [3]; [6],3.80 ± 0.63 b days
same,Average time (days ± standard deviation) Score-6 (slight shingles),HSV-1 [3]; [6],5.60 ± 0.71 days
same,Average time (days ± standard deviation) Survival,HSV-1 [3]; [6],7.70 ± 2.16 days
same,"Average time (days ± standard deviation) Score-2 (local efflorescence, bulla, erosion)",HSV-1 [3]; [7],3.70 ± 0.48 b days
same,Average time (days ± standard deviation) Score-6 (slight shingles),HSV-1 [3]; [7],5.30 ± 0.48 days
same,Average time (days ± standard deviation) Survival,HSV-1 [3]; [7],6.80 ± 0.42 days
same,"Average time (days ± standard deviation) Score-2 (local efflorescence, bulla, erosion)",HSV-1 [3]; [8],3.90 ± 0.70 b days
same,Average time (days ± standard deviation) Score-6 (slight shingles),HSV-1 [3]; [8],5.70 ± 0.68 b days
same,Average time (days ± standard deviation) Survival,HSV-1 [3]; [8],7.30 ± 1.16 b days
same,"Average time (days ± standard deviation) Score-2 (local efflorescence, bulla, erosion)",HSV-1 [3]; [9],4.00 ± 0.47 d days
same,Average time (days ± standard deviation) Score-6 (slight shingles),HSV-1 [3]; [9],5.78 ± 0.97 days
same,Average time (days ± standard deviation) Survival,HSV-1 [3]; [9],6.89 ± 0.33 days
same,"Average time (days ± standard deviation) Score-2 (local efflorescence, bulla, erosion)",HSV-1 [3]; [10],3.60 ± 0.70 days
same,Average time (days ± standard deviation) Score-6 (slight shingles),HSV-1 [3]; [10],5.40 ± 0.52 days
same,Average time (days ± standard deviation) Survival,HSV-1 [3]; [10],7.00 ± 1.49 days
same,"Average time (days ± standard deviation) Score-2 (local efflorescence, bulla, erosion)",HSV-1 [3]; [11],3.90 ± 0.74 b days
same,Average time (days ± standard deviation) Score-6 (slight shingles),HSV-1 [3]; [11],5.40 ± 0.53 days
same,Average time (days ± standard deviation) Survival,HSV-1 [3]; [11],7.10 ± 1.52 days
same,Death rate,"[4]; Exp. 1, 1 mg/kg orally every day, three times a day, non-infected mice",0/5
same,(Average body weight ± standard deviation) Administration period 7 days,[4]; [12],19.8 ± 1.4
same,(Average body weight ± standard deviation) Administration period 36 days,[4]; [12],22.6 ± 0.8
same,Death rate,"[4]; Exp. 1, 5 mg/kg orally every day, three times a day, non-infected mice",0/5
same,Death rate,"[4]; Exp. 2, 10 mg/kg orally every day, three times a day, non-infected mice",0/5
same,deaths of mice,"[4]; even at the maximum concentration of 10 mg/kg, after the lapse of time of 25 days",none of the five mice died
same,(Average body weight ± standard deviation) Administration period 7 days,"[4]; mouse, in vivo, po, 5 mg/kg",19.9 ± 1.4
same,(Average body weight ± standard deviation) Administration period 36 days,"[4]; mouse, in vivo, po, 5 mg/kg",21.0 ± 0.8
same,(Average body weight ± standard deviation) Administration period 7 days,"[4]; mouse, in vivo, po, 10 mg/kg",20.1 ± 1.2
same,(Average body weight ± standard deviation) Administration period 21 days,"[4]; mouse, in vivo, po, 10 mg/kg",20.4 ± 1.0
same,effect to inhibit virus DNA synthesis,AP^r1 [5],not found
